The values below come from patent US8088924B2, “Pyridone derivatives having a binding activity to the cannabinoid type 2 receptor” (Shionogi & Co., Ltd., priority 2000, dated 2012).

The target in one series is T1, human CB1 receptor (Homo sapiens, UniProt P21554).
T1 construct: expressed in transfected cells
In words: Human CB1 receptor binding assay ([3H]CP55940, membranes of CB1R-expressing CHO cells). The note with it: [3H]CP55940 0.5 nM.

A further series has as its target T2, human CB2 receptor (Homo sapiens, UniProt P34972).
T2 construct: The coding region of human CB2 receptor (CB2R) cDNA (Munro etc, Nature, 1993, 365, 61-65) was inserted into the mammalian expression vector; expressed in transfected cells
Kind of series: Human CB2 receptor binding inhibition ([3H]CP55940, membranes of CB2R-expressing CHO cells).

By melting point is commonly meant the temperature, or range, at which the solid turns liquid. For orientation: Ki means a dissociation constant, usually derived from enzyme kinetics or from competition with a known ligand.

The structures appear in SMILES notation.

T1 sequence (P21554 whole entry): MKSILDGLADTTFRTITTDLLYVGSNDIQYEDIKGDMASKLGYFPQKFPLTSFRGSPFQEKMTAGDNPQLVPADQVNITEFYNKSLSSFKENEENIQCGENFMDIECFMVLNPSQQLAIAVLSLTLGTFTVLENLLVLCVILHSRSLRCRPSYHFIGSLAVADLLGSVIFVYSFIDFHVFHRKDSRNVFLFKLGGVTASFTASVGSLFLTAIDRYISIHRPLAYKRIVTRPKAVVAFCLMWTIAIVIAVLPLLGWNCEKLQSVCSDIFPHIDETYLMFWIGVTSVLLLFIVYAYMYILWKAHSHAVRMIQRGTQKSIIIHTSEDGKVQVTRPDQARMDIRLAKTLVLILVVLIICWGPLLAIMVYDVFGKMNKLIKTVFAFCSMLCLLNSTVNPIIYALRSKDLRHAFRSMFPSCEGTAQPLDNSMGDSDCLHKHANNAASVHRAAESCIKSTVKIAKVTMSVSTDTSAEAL
T2 sequence (P34972 whole entry): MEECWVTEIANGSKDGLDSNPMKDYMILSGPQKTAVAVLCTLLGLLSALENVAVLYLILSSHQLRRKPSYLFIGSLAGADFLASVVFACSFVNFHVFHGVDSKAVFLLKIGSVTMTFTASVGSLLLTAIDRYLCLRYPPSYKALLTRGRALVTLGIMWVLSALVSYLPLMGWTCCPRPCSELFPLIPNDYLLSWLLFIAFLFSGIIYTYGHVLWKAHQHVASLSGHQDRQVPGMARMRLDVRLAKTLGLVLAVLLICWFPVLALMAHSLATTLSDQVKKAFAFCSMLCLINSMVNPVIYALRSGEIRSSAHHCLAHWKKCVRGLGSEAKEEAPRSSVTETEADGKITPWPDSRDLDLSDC
Method for human CB1 receptor: Receptor binding assay was performed by incubating the membranes with each test compound and [^3H]CP55940 (at a final concentration of 0.5 nM: NEN Life Science Products) in the assay buffer (50 mM Tris-HCl, 1 mM EDTA, 3 mM MgCl2, pH 7.4) containing 0.5% bovine serum albumin (BSA) for 2 h at 25° C. The incubation mixture was filtered through 1% polyethylenimine-treated GF/C glass filter and washed with 50 mM Tris-HCl (pH 7.4) containing 0.1% BSA. The radioactivity was then counted with a liquid scintillation counter.
(§1) For the receptor binding assay of human CB1 receptor (CB1R), the stable CB1R-expressing CHO cells were prepared as described above, and the binding assay was performed using their membrane fractions.
Method for human CB2 receptor: The crude membrane fractions were prepared from the CB2R-expressing CHO cells. Receptor binding assay was performed by incubating the membranes with each test compound and [^3H]CP55940 (at a final concentration of 0.5 nM: NEN Life Science Products) in the assay buffer (50 mM Tris-HCl, 1 mM EDTA, 3 mM MgCl2, pH 7.4) containing 0.5% bovine serum albumin (BSA) for 2 h at 25° C. The incubation mixture was filtered through 1% polyethylenimine-treated GF/C glass filter and washed with 50 mM Tris-HCl (pH 7.4) containing 0.1% BSA. The radioactivity was then counted with a liquid scintillation counter.
as §1

On to `CCn1c(C)c(C)cc(C(=O)NCc2ccccc2)c1=O`, for which the melting point is 117 °C.

As for `CCCCn1c(C)c(C)cc(NC(=O)c2ccc(F)cc2)c1=O`, the melting point fell in the range of 129 to 130 °C.

As to `CCCCn1c(C)c(C)cc(NC(=O)c2ccccc2Cl)c1=O` [Example 5-005], the affinity on human CB1 receptor corresponds to a Ki of 391 nM.

With `CCCCn1c(C)c(C)cc(NC(=O)c2ccccc2C)c1=O` [Example 5-006], the Ki on human CB1 receptor worked out at 390 nM.

For `CCCCn1c2c(cc(C(=O)NCCc3ccc(N)cc3)c1=O)CCCC2` [Example 4-003], the Ki amounted to 44 nM at human CB2 receptor and 680 nM on human CB1 receptor.

The compound `Cc1ccc(Oc2nc3ccccc3o2)c(=S)n1C` had a melting point of 245 to 247 °C.
